Consider six compounds from patent publication US20230312564A1, “AROMATIC RING-LACTAM COMPOUND, PREPARATION METHOD THEREFOR AND USE THEREOF” (SHANGHAI RINGENE BIOPHARMA CO., LTD., priority 2020, published 2023).

“And” between values parts separate entries of the source, which are not always exact repeats. Identical values can stand only once. Like-named read-outs stand apart in the source and are kept apart here. Some results are limits rather than exact numbers.

One series has as its system Colo-205 cells. As to the kind of experiment: Colo-205 tumor cell proliferation, CCK-8, 72 hours. Format: cell-based. As to conditions: for IC50: read-out: Colo-205 IC50; for cell proliferation inhibitory activity (in words): Colo-205. The procedure:
1. Test method: Colo-205 cells (ATCC) in logarithmic growth phase were inoculated into a 96-well culture plate at an appropriate density with 90 μL per well. After overnight culture, different concentrations of the compound were added and acted for 72 hours, and a solvent control group (negative control) was set. After the compound was acted on cells for 72 hours, the effect of the compound on cell proliferation was detected by the cell counting kit CCK-8 (Dojindo), and 10 μL of CCK-8 reagent was added to each well. After the plate was placed in a 37° C. incubator for 2 to 4 hours, a full-wavelength microplate reader SpectraMax 190 was adopted for obtaining the readings with a measured wavelength of 450 nm. […] The IC50 value was obtained by four-parameter regression with the software attached to the microplate reader.

A short description of series [1]: Liver microsomal metabolic stability, rat. Type of series: in vitro ADME. As to conditions: 0.5 mg/mL microsomes, 1 μM compound, NADPH; for half-life at 1 μM: liver microsomes, read-out: Liver microsomal stability T1/2. The protocol: (§1) The reaction was stopped with tinidazole-containing acetonitrile at 0 min, 5 min, 10 min and 30 min, respectively. After vortexing for 10 min and centrifuging at 15,000 rmp for 10 min, 50 μL of the supernatant was injected into a 96-well plate. The metabolic stability of the compound was calculated by determining the relative reduction of the drug, calculated as half-life T1/2.
In general terms: Microsomes from liver hold many membrane-bound enzymes, among them those of drug oxidation.

Series [2] in a line: Liver microsomal metabolic stability, dog. Type of series: in vitro ADME. As to conditions: 0.5 mg/mL microsomes, 1 μM compound, NADPH; for half-life at 1 μM: liver microsomes, read-out: Liver microsomal stability T1/2. The protocol:
as §1

Series [3] in a line: Liver microsomal metabolic stability, human. Format: in vitro ADME. Conditions: 0.5 mg/mL microsomes, 1 μM compound, NADPH; for half-life at 1 μM: liver microsomes, read-out: Liver microsomal stability T1/2. The procedure: as §1
Series [4] in a line: Liver microsomal metabolic stability, mouse. Format: in vitro ADME. Conditions: 0.5 mg/mL microsomes, 1 μM compound, NADPH; for half-life at 1 μM: liver microsomes, read-out: Liver microsomal stability T1/2. The protocol: as §1
Another series deals with T1, ERK1/2 kinase.
T1 construct: fused on or other part: Carna's ERK products carry a GST tag by vendor knowledge
As to the kind of experiment: ERK1/2 kinase (Carna) inhibitory activity, Caliper mobility shift. Format: biochemical. Conditions: for IC50: numeric values, read-out: ERK½ IC50. The protocol:
(1) Preparation of 1×Kinase buffer; (2) preparation of compound concentration gradient: the initial test concentration of the tested compound was 10 μM, which was 3-fold diluted to 10 concentrations, and a duplicate test was conducted, and then the tested compound was diluted in a 96 well plate to a 100-fold final concentration of 10 different concentrations of solution. […] Log (inhibitor) vs. response—Variable slope of the analysis software GraphPad Prism 5 was used to fit the dose-effect curve to obtain the IC50 value of each compound on the enzyme activity.
2. […] (A<10 nM, 10 nM≤B<200 nM, C≥200 nM)

A short description of series [5]: Liver microsomal stability, comparisons in words across species. Format: in vitro ADME. As to conditions: for stability of different kinds of liver microsomes (in words): different species, versus the comparative compounds. The protocol: as §1
Setting [6] is: Homo sapiens, COLO 205, 72 hours, CCK-8, numeric values.
Setting [7] is: rat, dog and human, compared with the comparative compound 1.
The mark [8] stands for this setting: 72 hours, CCK-8, numeric values.

With `Cc1cccc([C@@H](CO)NC(=O)[C@@H](C)N2Cc3c(F)cc(-c4nc(NC5CCOCC5)ncc4Cl)cc3C2=O)c1` [Comparative compound 4, (R)-2-(6-(5-Chloro-2-((tetrahydro-2H-pyran-4-yl)amino)pyrimidin-4-yl)-4-fluoro-1-oxoisoindolin-2-yl)-N—((S)-2-hydroxy-1-(m-tolyl)ethyl)propanamide, reference compound], the IC50 in the series with Colo-205 cells (Homo sapiens, COLO 205, 72 h) amounted to 37.8 nM. Moreover, the half-life at 1 μM in series [1] was 3 min; in series [2] it was 60 min; in series [3], 3 min.
For `COc1cc(F)cc([C@@H](CO)NC(=O)[C@@H](C)N2Cc3ccc(-c4nc(NC5CCOCC5)ncc4Cl)cc3C2=O)c1` [Comparative compound 5, (R)-2-(6-(5-Chloro-2-((tetrahydro-2H-pyran-4-yl)amino)pyrimidin-4-yl)-1-oxoisoindolin-2-yl)-N—((S)-1-(3-fluoro-5-methoxyphenyl)-2-hydroxyethyl)propanamide, reference compound], the half-life at 1 μM in series [1] is 3 min; in series [2], 41 min; in series [3], 3 min; in series [4] it was 15 min.
Consider `C[C@H](C(=O)N[C@H](CO)c1cccc(Cl)c1)N1Cc2ccc(-c3nc(NC4CCOCC4)ncc3Cl)nc2C1=O` [Embodiment 21], for which the IC50 was 5.3 nM at ERK1/2 kinase and 90.9 nM with Colo-205 cells (setting [6]). Further, the half-life at 1 μM in series [1] is 13 min; in series [2], 78 min; in series [3] it was 62 min; in series [4] it was 234 min. Besides, the “stability of different kinds of liver microsomes (in words)” value in series [5] is recorded as “significant advantages”.
Turning to `Cc1cccc([C@@H](CO)NC(=O)[C@@H](C)N2Cc3ccc(-c4nc(NC5CCOCC5)ncc4Cl)c(F)c3C2=O)c1` [Embodiment 25], the “enzyme inhibitory activity (in words)” value in the series with ERK1/2 kinase is given as “extremely strong enzyme inhibitory activity”. The IC50 on ERK1/2 kinase was 0.7 nM; in the series with Colo-205 cells (72 hours, CCK-8, class symbols) it was less than 100 nM. In addition, the “Liver microsomal stability T1/2” value was 10 min and 15 min in series [1]; 60 min and 70 min in series [2]; 18 min in series [3]. Also, the “stability in liver microsomes (in words)” value in series [5] (rat and human, compared with the comparative compounds 1 and 4) was “significantly improved”; in series [5] (setting [7]), “significantly improved”.
Take `C[C@H](C(=O)N[C@H](CO)c1cccc(Cl)c1)N1Cc2ccc(-c3nc(NC4CCOCC4)ncc3Cl)c(F)c2C1=O` [Embodiment 34]: the IC50 was found to be 0.8 nM on ERK1/2 kinase and 34.3 nM in the series on Colo-205 cells (setting [8]). Also, the “cell proliferation inhibitory activity (in words)” value in the series on Colo-205 cells is listed as “strong cell proliferation inhibitory activity”. Moreover, the “Liver microsomal stability T1/2” value is 19 min in series [1], 75 min in series [2], 18 min in series [3] and 12 min in series [4]. In series [5], the “stability of different kinds of liver microsomes (in words)” value was “significant advantages”.
Take `C[C@H](C(=O)N[C@H](CO)c1cccc(Cl)c1)N1Cc2ccc(-c3ccnc(Nc4ccnn4C)c3)cc2C1=O` [compound 2, (R)—N—((S)-1-(3-Chlorophenyl)-2-hydroxyethyl)-2-(6-(2-((1-methyl-1H-pyrazol-5-yl)amino)pyridin-4-yl)-1-oxoisoindolin-2-yl)propanamide, reference compound]: the “enzyme inhibitory activity (in words)” value in the series with ERK1/2 kinase is “extremely strong enzyme inhibitory activity”. In addition, the IC50 with Colo-205 cells (setting [8]) was 88.6 nM; in the series on Colo-205 cells (setting [6]) it was 354 nM. In addition, in the series on Colo-205 cells, the “cell proliferation inhibitory activity (in words)” value is “strong cell proliferation inhibitory activity”. Moreover, the “Liver microsomal stability T1/2” value in series [1] is 18 min; in series [2] it was 403 min; in series [3], 15 min. Also, the “stability in liver microsomes (in words)” value is recorded as “significantly improved” in series [5] (setting [7]); “significantly improved” in series [5] (rat, dog and human, compared with the comparative compounds 1 and 3).

As usually defined, the IC50 is the concentration needed to halve the response being measured.
